Reference: US5358947A, “Angiotensin II receptor blocking 2,3-substituted pyrazolo[1,5-a]-1,3,5-triazin-4(3H)-ones” (American Cyanamid Company, priority 1993, dated 1994)
Where a name gives a salt, the structure may show the parent alone.

biological target: T1, Angiotensin II Receptor (Bos taurus, UniProt P25104); assay: Angiotensin II receptor binding assay ([125I](Sar1,Ile8)AngII displacement, beef adrenal cortex membranes); details: 60 minutes, room temperature
T1 construct: The brownish tissue forming the adrenal cortex is scraped off and finely minced with scissors before homogenization; tissue local slaughter house (Maxwell-Cohen); host or cells: beef adrenal cortex, microsomal membranes (100,000×g pellet)
T1 sequence (P25104 1-359): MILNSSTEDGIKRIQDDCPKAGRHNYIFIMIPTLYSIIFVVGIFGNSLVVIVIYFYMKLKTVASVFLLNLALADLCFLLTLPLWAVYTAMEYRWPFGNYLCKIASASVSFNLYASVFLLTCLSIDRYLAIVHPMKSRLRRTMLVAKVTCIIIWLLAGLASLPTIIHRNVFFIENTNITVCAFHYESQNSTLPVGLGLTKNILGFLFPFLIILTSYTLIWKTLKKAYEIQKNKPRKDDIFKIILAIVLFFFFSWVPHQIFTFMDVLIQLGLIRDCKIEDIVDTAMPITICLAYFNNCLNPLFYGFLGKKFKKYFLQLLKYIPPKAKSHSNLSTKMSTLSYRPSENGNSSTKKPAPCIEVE
Source text: Beef adrenals are obtained from a local slaughter house (Maxwell-Cohen). [^125 I](Sar^1,Ile^8)AngII, S.A. 2200 Ci/mmole, is purchased from Dupont (NEN®, Boston, Mass.). all unlabeled AngII analogs, Dimethylsulfoxide (DMSO), nucleotides, bovine serum albumin (BSA) are purchased from Sigma Chemical Co , St Louis, Mo. U.S.A.
Approximately sixteen (16) to twenty (20) beef adrenal glands are processed as follows: fresh adrenal glands received on crushed ice are cleaned of fatty tissues and the tough membranes encapsulating the glands are removed and discarded. The brownish tissue forming the adrenal cortex is scraped off and finely minced with scissors before homogenization. Care is taken to avoid contamination with medullary tissue during dissection. The scraped cortices are suspended in twenty volumes of an ice-cold buffer medium consisting of 10 mM Tris.HCl (pH 7.4 at 22° C.) and containing 1.0 mM EDTA and 0.2M sucrose. Unless otherwise indicated, all subsequent operations are done at 4° C. The tissue is homogenized in a glass homogenizer with a motor driven teflon pestle with a clearance of 1.0 mm. The homogenate is centrifuged first at low speed (3,000×g) for 10 minutes. The resulting pellet is discarded and the supernatant fluid recentrifuged at 10,000×g of 15 minutes to give a P2 pellet. This P2 pellet is discarded and the liquid phase is carefully decanted off in clean centrifuge tubes and recentrifuged at high speed (100,000×g) for 60 minutes. The translucent final pellet is harvested and combined in a small volume (20-50.0 ml) of 50.0 mM Tris.HCl buffer, pH 7.2. A 100 ul aliquot is withdrawn and the protein content of the preparation is determined by the Lowry's method (Lowry, O. H., Rosebrough, N. F., Farr, A. L. and Randall, R. J., Protein measurement with Folin phenol reagent. J. Biol. Chem., […], 265-275, 1951). The pelleted membrane is reconstituted in 50.0 mM Tris.HCl buffer containing 0.1 mM of phenylmethylsulfonyl fluoride (PMSF) to give approximately a protein concentration of 2.5 mg per ml of tissue suspension. The membrane preparation is finally aliquoted in 1.0 ml volumes and stored at -70° C. until use in the binding assays.
Binding of[^125 I](Sar^1,Ile^8)AngII
The binding of [^125 I](Sar^1 Ile^8)AngII to microsomal membranes is initiated by the addition of reconstituted membranes (1:10 vols.) in freshly made 50.0 mMTris.HCl buffer, pH 7.4 containing 0.25% heat inactivated bovine serum albumin (BSA): 80 ul membrane protein (10 to 20 ug/assay) to wells already containing 100 ul of incubatin buffer (as described above) and 20 ul [^125 I](Sar^1,Ile^8)AngII (Specific Activity 2200 Ci/mmole). Non-specific binding is measured in the presence of 1.0 uM unlabeled (Sar^1,Ile^8)AngII, added in 20 ul volume. Specific binding for [^125 I](Sar^1, Ile^8)AngII is greater than 90% In competition studies, experimental compounds are diluted in dimethylsulfoxide (DMSO) and added in 20 ul to wells before the introduction of tissue membranes. This concentration of DMSO is found to have no negative effects on the binding of [^125 I](Sar^1, Ile^8)AngII to the membranes. Assays are performed in triplicate. The wells are left undisturbed for 60 minutes at room temperature. Following incubation, all wells are harvested at once with a Brandel® Harvester especially designed for a 96 well plate (Brandel®Biomedical Research & Development Labs. Inc., Gaithersburg, Md., U.S.A.). The filter discs are washed with 10×1.0 ml of cold 0.9% NaCl to remove unbound ligand. […] This method is routinely used. The filters are removed from the filter grid and counted in a Parkard® Cobra Gamma Counter for 1 minute. (Packard Instrument Co., Downers Grove, Ill., U.S.A.). The binding data are analyzed by the non-linear interactive "LUNDON-1" program (LUNDON SOFTWARE Inc., Cleveland, Ohio U.S.A.). […]

Going from `CCCCc1nc2ccnn2c(=O)n1Cc1ccc(-c2ccccc2-c2nn[nH]n2)cc1` [Example 17, 2-Butyl-3-[[2'-(1H-tetrazol-5-yl)[1,1'-biphenyl]-4-yl]methyl]pyrazolo[1,5-a]-1,3,5-triazin-4(3H) -one] to `CCCCc1nc2c(Br)cnn2c(=O)n1Cc1ccc(-c2ccccc2-c2nn[nH]n2)cc1` [Example 20], the IC50 rises from 1200 nM to 4000 nM (3.3-fold).

First: CCCCc1nc2cc(-c3ccc(F)cc3)nn2c(=O)n1Cc1ccc(-c2ccccc2-c2nnn[nH]2)cc1 [Example 12, 2-Butyl-7-(4-fluorophenyl)-3-[[2'-(1H-tetrazol-5-yl)[1,1'-biphenyl]-4-yl]methyl]pyrazolo[1,5-a]-1,3,5-triazin-4(3H)-one]
Second: CCCCc1nc2cc(-c3ccccc3)nn2c(=O)n1Cc1ccc(-c2ccccc2-c2nnn[nH]2)cc1 [Example 10, 2-Butyl-7-phenyl-3-[[2'-(1H-tetrazol-5-yl)[1,1'-biphenyl]-4-yl]methyl]pyrazolo[1,5-a]-1,3,5-triazin-4(3H)-one]
The IC50 of the first is 12-fold lower: 63 nM for the first, 760 nM for the second.

Going from `CCCCc1nc2cc(-c3ccco3)nn2c(=O)n1Cc1ccc(-c2ccccc2-c2nnn[nH]2)cc1` [Example 11, 2-Butyl-7-(2-furanyl)-3-[[2'-(1H-tetrazol-5-yl)[1,1'-biphenyl]-4-yl]methyl]pyrazolo[1,5-a]-1,3,5-triazin-4(3H)-one] to `CCCCc1nc2ccnn2c(=O)n1Cc1ccc(-c2ccccc2-c2nn[nH]n2)cc1` [Example 21, 2-Butyl-3-[[2'-(1H-tetrazol-5-yl)-[[1,1'-biphenyl]-4-yl]methyl]-pyrazolo[1,5-a]-1,3,5-triazin-4(3H)-one potassium salt], the IC50 rises from 670 nM to 3000 nM (4.5-fold).
